# Source: patent publication US9907856B2, “Carboxymethylcellulose-peptide conjugates and methods for using the same” (The Regents of the University of California, priority 2013, dated 2018)
# Ends that are not written are not given here.
# How the values were obtained:
# [1] = Rheology studies of 5:1 MC:CMC polymer blends; assay type: physicochemical; conditions: for Gelling temperature: 5:1 MC:CMC polymer blends, intersection of elastic and viscous modulus plots, mean ± SEM; for Effect of peptide conjugation on viscoelastic properties of the polymer: 5:1 blend, 20-40° C., vs unconjugated polymer
# Method: Rheology measurements (Advanced Rheometer AR2000, TA Instruments, New Castle, Del.) were done on MC:CMC, MC:CMC-RGD, and MC:CMC-HepIII co-polymers mixed at a 5:1 ratio. The elastic modulus and viscous modulus were determined for temperatures ranging from 20-40° C., with 1° C. increments. The equilibration time was set at 1 min. and the frequency was set at 1 Hz. The gelling temperature was defined as the point of intersection between the plot for the elastic modulus and the plot for the viscous modulus. Measurements were done in triplicate.
# [2] = tested on: Chronic Myocardial Infarction Model; assay: Echocardiography in chronic myocardial infarction model after polymer injection; assay type: in vivo, Sprague-Dawley rats; conditions: rat; for Diastolic volume / MI wall thickness / Systolic volume: 5 weeks post-treatment vs baseline; for Fractional area change (FAC), 5 weeks post-treatment / LV ejection fraction, 5 weeks post-treatment: 100 μL injected into infarcted LV, 5 weeks post-treatment (10 weeks post-MI); for Fractional area change (FAC), 5 weeks post-treatment / LV ejection fraction, 5 weeks post-treatment / Fractional area change (FAC), baseline / LV ejection fraction, baseline: mean ± SD; for Fractional area change (FAC), baseline / LV ejection fraction, baseline: baseline 5 weeks post-MI, before treatment
# Method: (§1) All surgical procedures were approved by the Committee for Animal Research of the University of California San Francisco (San Francisco, Calif.). Female Sprague-Dawley rats (225-250 g) were anesthetized with isoflurane. The chest was opened by a median sternotomy, and a single stitch of 7-0 Ticron suture (United States Surgical division of Tyco Healthcare, Norwalk, Conn.) was introduced around the left anterior descending (LAD) coronary artery and tightened to occlude for 30 min. before re-perfusing the vessel (Yu et al, J Thorac Cardiovasc Surg. 2009 Jan. 1, 2009; 137(1):180-7; Christman et a, J Am Coll Cardiol. 2004; 44(3):654-60; Christman et al, Tissue Eng. 2004; 10(3-4):403-9; Huang et al, Tissue Eng. 2005; 11(11-12):1860-6; Sievers et al, Magn Reson Med. 1989; 10:172-81; and Yu et al, Biomaterials. 2009; 30(5):751-6; which are hereby incorporated by reference in their entirety). Cardiac monitoring during the LAD occlusion confirmed the presence of myocardial injury as indicated by ST-elevation. The chest was then closed and the animal was allowed to recover for 5 weeks in order to allow for a LV aneurysm to fully develop. Transthoracic echocardiography was performed 5 weeks post-MI and 5 weeks post-treatment as previously described (Yu et al, J Thorac Cardiovasc Surg. 2009 Jan. 1, 2009; 137(1):180-7; and Litwin et al, Circulation. 1994; 89:345-54; which are hereby incorporated by reference in their entirety).
# (§2) Five weeks post-MI and prior to treatment, we verified the LV aneurysmal formation and compromised LV function via echocardiography. The rats were randomized into MC:CMC, MC:CMC-RGD, MC:CMC-HepIII, or phosphate-buffered saline (PBS) control groups (N=8-9 rats/group). Using a closed chest echocardiography-guided injection technique (Springer et al, American Journal of Physiology—Heart and Circulatory Physiology. Sep. 1, 2005; 289(3):H1307-H14; which is hereby incorporated by reference in its entirety), 100 μL of polymer or PBS solution was injected into the infracted LV region of each heart, using a 1 mL syringe system and a 25-gauge needle.
# [3] = tested on: Chronic Myocardial Infarction Model; assay: Histology/immunohistochemistry of infarct region (infarct size, angiogenesis, cardiac cells); assay type: in vivo, Sprague-Dawley rats; conditions: rat, 5 weeks post-treatment; for Density of cardiomyocytes within the infarct region / Infarct size: compared to PBS negative control; for Capillary density in the infarct region: CD31 staining; for Capillary density in the infarct region / Arteriole density within the infarct region: mean ± SD; for Infarct size: Masson's trichrome; for Arteriole density within the infarct region: α-smooth muscle actin staining
# Method: as §1, §2
# Five weeks post-treatment (10 weeks post-MI), the rats were euthanized and their hearts were harvested, rinsed in cold saline, blotted-dry and fresh frozen in Tissue Tek O.C.T. freezing medium (Sakura Finetek, Torrance, Calif.). The hearts were sectioned into 10 μm slices. Sequential slides spanning the LV region were stained with Masson's trichrome stain and were used for morphological assessment of the infarct size as previously described (Christman et al, J Am Coll Cardiol. 2004; 44(3):654-60). Angiogenesis, arteriogenesis, and the number of cardiac cells within the infarct region were examined by immunohistochemical (IHC) staining with mouse monoclonal anti-CD31 (BD Biosciences Pharmingen, San Diego, Calif.) to visualize capillaries, mouse monoclonal anti-α-smooth muscle actin (Sigma, St. Louis, Mo.) to detect arterioles (Virag et al, Am J Pathol. 2003 Dec. 1, 2003; 163(6):2433-40; which is hereby incorporated by reference in its entirety), and mouse monoclonal anti-rat cardiac α-myosin heavy chain (Panorama Research Institute, Mountain View, Calif.) to detect the cardiac cells. The staining assay was performed using mouse-on-rat HRP-polymer (Biocare Medical, Concord, Calif.) on slides that were sequential to the slides stained with trichrome. Capillaries in the infarct region were identified as a single layer of CD31-positive cells with flattened morphology. Vessel density, cardiac cell density, and nuclei density was calculated on the basis of 5 high magnification fields per section that spanned the infarct and averaged among 5 sections for each sample. Arterioles within or bordering the infarct were identified as staining positive for α-smooth muscle actin and as having a visible lumen with a diameter between 10 and 100 μm (Yu et al, J Thorac Cardiovasc Surg. 2009 Jan. 1, 2009; 137(1):180-7; and Christman et a, J Am Coll Cardiol. 2004; 44(3):654-60). […]
Substance,Gelling temperature [1],Effect of peptide conjugation on viscoelastic properties of the polymer [1],Diastolic volume [2],MI wall thickness [2],Systolic volume [2],"Fractional area change (FAC), 5 weeks post-treatment [2]","LV ejection fraction, 5 weeks post-treatment [2]","Fractional area change (FAC), baseline [2]","LV ejection fraction, baseline [2]",Density of cardiomyocytes within the infarct region [3],Capillary density in the infarct region [3],Infarct size [3],Arteriole density within the infarct region [3]
"MC:CMC-HepIII: Methylcellulose blended 5:1 with carboxymethylcellulose conjugated to HepIII peptide GEFYFDLRLKGDKY (SEQ ID NO: 2) (also: conjugated to carboxymethylcellulose, blended with methylcellulose (attachment site not given here))",26.85 ± 0.6256 °C,decreased stiffness and viscosity,significantly decreased,increase,significantly decreased,45.6±9.63%,43.0±6.25%,36.9±2.60%,36.9±2.18%,higher density,424±56 capillaries/mm^2,statistically significant reduction,28±10 arterioles/mm^2
"MC:CMC-RGD: Methylcellulose blended 5:1 with carboxymethylcellulose conjugated to RGD peptide GRGDSPASSPISC (SEQ ID NO: 1) (also: conjugated to carboxymethylcellulose, blended with methylcellulose (attachment site not given here))",26.75 ± 0.4954 °C,did not significantly alter,significantly decreased,increase,significantly decreased,44.0±9.26%,42.9±8.29%,36.0±2.44%,34.2±1.91%,higher density,472±146 capillaries/mm^2,statistically significant reduction,32±12 arterioles/mm^2
